Patent US20260364088A1, “TASL MIMICKING MOLECULES AND APPLICATIONS THEREOF” (CEMM - FORSCHUNGSZENTRUM FÜR MOLEKULARE MEDIZIN GMBH, priority 2022, published 2026)
Read-outs that look alike come from different tables or passages of the source.

Key:
Type in all cases: cell-based
THP1 dual cell = target: T1, THP1 dual cell (Homo sapiens, UniProt Q8N697); assay: THP1 DUAL/ISRE cell reporter assay (R848 stimulated)
T1 construct: R848 (TLR7/8)-stimulated ISRE reporter
Experimental: CAL-1, THP1 or human primary cells were incubated with dTASL1 and other identified compounds (or the corresponding volume of DMSO vehicle) for 24 h or 48 h at the indicated concentration and subsequently stimulated with R848 (5 μg/ml) for the indicated time. Supernatant or cells were recovered for ELISA, SDS-PAGE or microscopy-based analysis.
THP1 DUAL cells (1×10^5 cells per 96 well) were incubated with compounds for 24 h or 48 h, and subsequently stimulated for 20 h as indicated. Cell culture supernatant were collected, cleared of residual cells by centrifugation and analyzed for NF-κB and ISRE reporter activity according to the manufacturer's instructions. For experiments in 384-well format, compounds were pre-plated at defined concentrations and THP1 dual cells were added at 800 k/well concentration in […]. After incubation for 24 h or 48 h cells were stimulated with […] of a 25 μg/ml stock of R848 or 0.5 μg/ml Pam3CKS4 5× stocks as indicated for 20 h and detected by directly adding Quanti-Luc Plus (Invivogen) solution to the plates, according to the manufacturer's instructions and without adding stabilizer solution. Quanti-Blue detection was carried out according to the manifacturers instructions, with QB reagent and buffer (Invivogen) dissolved in 30 ml water, instead of the 100 ml used for standard detection.
Based on potency and kinetics, the compound C5 was selected for further characterization (FIG. 2E). C5 is an elongated molecule comprised of an aromatic 2-(4-ethoxyphenyl)-quinoline moiety followed by an amide bond and an aliphatic 2-methyl-1-propylpiperidine (FIG. 2F). To validate the scaffold and explore the chemical space at the aliphatic end of the compound, five analogues and an independently synthesized batch of C5 were obtained. […] Therefore the C5 compound was selected, which was named dTASL1 as its activity leads to TASL degradation, to assess effects on TLR7/8-induced signaling and responses.
The following compounds were assayed for their activity in the degradation assay (THP1 DUAL/ISRE cell reporter assay), as described herein: […]

TASL-GFP (Homo sapiens) = assay: TASL-GFP levels in HEK293T cells co-expressing SLC15A4 (flow cytometry, microscopy); conditions: HEK293T co-expressing SLC15A4, 10 µM, 24 h
TASL-GFP (Homo sapiens), sequence (Q8N697 whole entry): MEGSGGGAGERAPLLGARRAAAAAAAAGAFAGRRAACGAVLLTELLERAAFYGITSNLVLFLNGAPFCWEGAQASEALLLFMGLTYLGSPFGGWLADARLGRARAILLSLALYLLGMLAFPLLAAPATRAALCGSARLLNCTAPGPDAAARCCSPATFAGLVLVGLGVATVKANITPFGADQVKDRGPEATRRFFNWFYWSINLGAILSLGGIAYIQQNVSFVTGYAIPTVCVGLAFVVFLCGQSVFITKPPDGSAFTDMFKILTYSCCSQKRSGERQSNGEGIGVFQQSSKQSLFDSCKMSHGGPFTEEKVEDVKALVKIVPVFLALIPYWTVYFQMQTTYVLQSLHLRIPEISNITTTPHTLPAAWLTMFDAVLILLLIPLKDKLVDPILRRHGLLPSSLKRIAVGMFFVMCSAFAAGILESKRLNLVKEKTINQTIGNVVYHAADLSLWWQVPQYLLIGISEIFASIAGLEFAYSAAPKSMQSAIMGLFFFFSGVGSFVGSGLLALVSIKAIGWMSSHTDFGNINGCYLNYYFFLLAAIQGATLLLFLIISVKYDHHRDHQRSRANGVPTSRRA
Experimental: (§1) Cells transfected with TASL-V5 plasmid were stained for V5-tag and detected with deep red Alexa Fluor 647 secondary antibody to allow for selection in the presence of an mCherry reporter. Cells were measured either immediately after staining or in the case of live cells immediately after harvesting and washing with PBS. Data were acquired on a BD FACSCalibur (BD Biosciences) and analyzed with FlowJo software (version 10).
(§2) For live cell imaging cells were plated in PhenoPlate 96-well plates or Ibidi m-Slide 8 (Ibidi) wells at 16 k/well and incubated over-night. Then compounds were added, if indicated, and cells were imaged after 24 h of incubation. Cells were stained with LysoTracker Deep Red L12492 (ThermoFisher) and Hoechst 34580 (ThermoFisher). […] Images were analyzed with Fiji-ImageJ.
(§3) Encouraged by the fact that the chemical entity of the present invention was showing the desired behavior and specificity profile, it became important to better clarify the molecular basis of this uncommon mechanism of action, i.e interference with a highly specific protein interaction leading to degradation of a single complex component. The effect of dTASL1 on complex assembly was first monitored. […]

TASL-GFP = TASL-GFP (Homo sapiens, UniProt Q8N697); assay: as above; conditions: HEK293T co-expressing SLC15A4, 10 µM, 24 h
TASL-GFP, sequence (Q8N697 whole entry): as above
Experimental: as §1, §2, §3

SLC15A4-GFP = SLC15A4-GFP (Homo sapiens, UniProt Q8N697); assay: SLC15A4-GFP levels when expressed alone in HEK293T cells; conditions: 10 µM, 24 h
SLC15A4-GFP, sequence (Q8N697 whole entry): as above
Experimental: as §1, §2, §3

T1 sequence (Q8N697 whole entry): as above

`CCOc1ccc(-c2cc(C(=O)NCCCN3CCCCC3C)c3ccccc3n2)cc1` (centres unmarked) [dTASL1, 2-(4-ethoxyphenyl)-N-(3-(2-methylpiperidin-1-yl)propyl) quinoline-4-carboxamide] was tested, and the IC50 (THP1 dual cell; 24 h treatment before R848 stimulation, read-out: IC50 24 h) was 2230 nM, the IC50 (THP1 dual cell; 48 h treatment before R848 stimulation, read-out: IC50 48 h) was 933 nM and the TASL-GFP levels (TASL-GFP (Homo sapiens)) was “reduced TASL-GFP levels”. The “TASL-GFP levels and localization by microscopy” value (TASL-GFP) was “a reduction of TASL-GFP levels accompanied by relocalisation” and the “total levels of SLC15A4-GFP” value (SLC15A4-GFP) was “did not affect total levels of SLC15A4-GFP”.
